# Values of other authors, collected in patent publication US20190038644A1, “PREPARATION FOR NASAL-NASOPHARYNGEAL TREATMENT” (priority 2017, published 2019).
# How the values were obtained:
# [1] = tested on: E. coli adherence to human uroepithelial cells; conditions: addition of 2.5% D-mannose to E. coli uroepithelial cell suspensions; even when epithelial cells highly receptive
# [2] = tested on: E. Coli and other bacteria; conditions: versus fructose in cranberries
# [3] = not metabolized like other sugars, does not alter blood sugar levels
compound,measurement,setting,value
O=C[C@@H](O)[C@@H](O)[C@H](O)[C@H](O)CO [D-mannose],inhibition of adherence of E. coli to uroepithelial cells,[1],completely inhibited adherence
same,activity in inhibiting adherence relative to the fructose in cranberries,[2],10 times
same,entry into blood stream,[3],does not enter the blood stream
